Test results reported in ChEMBL document CHEMBL1201862, “PubChem BioAssay data set” (2004).
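A five-concentration, 48-hour dose response in 96-well plates underlies each endpoint, interpolated linearly between surrounding concentrations. GI50 = concentration required for 50% inhibition of growth.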 Calls of active or inactive are those of the source. No stated cut-off is given here; in the data, active = GI50 up to about 1.1 µM and inactive = higher.

Assays:
Assay in all cases: growth of human tumour cells (NCI), 48 h
DLD-1 = tested on: DLD-1
M19-MEL = tested on: M19-MEL
XF498 = tested on: XF498
SNB-78 = tested on: SNB-78
DMS-114 = tested on: DMS-114
HOP-18 = tested on: HOP-18
LXFL 529 = tested on: LXFL 529
DMS-273 = tested on: DMS-273
RXF 631 = tested on: RXF 631

CC[n+]1c(/C=C/c2ccc(N(CCCl)CCCl)cc2)ccc2cc(NC(=O)/C=C/c3ccccc3)ccc21
GI50 (DLD-1): 0.628 µM (active) | GI50 (M19-MEL): 0.439 µM (active) | GI50 (XF498): 0.205 µM (active) | GI50 (SNB-78): 1.51 µM (inactive) | GI50 (DMS-114): 0.52 µM (active) | GI50 (HOP-18): 2.62 µM (inactive) | GI50 (LXFL 529): 0.357 µM (active)

[N-]=[N+]=NC1C2CC3C4CC5CC3[C@H](C2)C(C5)C41 (stereo partly specified)
GI50 (DLD-1): > 100 µM (inactive) | GI50 (M19-MEL): > 100 µM (inactive) | GI50 (XF498): > 100 µM (inactive) | GI50 (DMS-114): > 100 µM (inactive) | GI50 (HOP-18): 17.1 µM (inactive) | GI50 (DMS-273): > 100 µM (inactive) | GI50 (LXFL 529): > 100 µM (inactive)

COC(=O)C1=C(c2ccc3c(c2)OCO3)OC(c2cc(OC)c(OC)c(OC)c2)C1 (stereo unspecified)
GI50 (DLD-1): 3.58 µM (inactive) | GI50 (M19-MEL): 4.86 µM (inactive) | GI50 (XF498): 14.5 µM (inactive) | GI50 (SNB-78): 10.4 µM (inactive) | GI50 (DMS-114): 2.49 µM (inactive) | GI50 (HOP-18): 16.3 µM (inactive) | GI50 (DMS-273): 1.89 µM (inactive) | GI50 (LXFL 529): 4.79 µM (inactive)

CN(C)/C=N\c1nc(=O)n(C2CCC(CO)O2)cc1F (stereo unspecified)
GI50 (DLD-1): > 100 µM (inactive) | GI50 (XF498): > 100 µM (inactive) | GI50 (SNB-78): 95.9 µM (inactive) | GI50 (HOP-18): > 100 µM (inactive) | GI50 (DMS-273): > 100 µM (inactive) | GI50 (LXFL 529): > 100 µM (inactive)

O=[N+]([O-])C1Cc2ccccc2OC1c1ccccc1 (stereo unspecified)
GI50 (DLD-1): 35.3 µM (inactive) | GI50 (M19-MEL): > 100 µM (inactive) | GI50 (SNB-78): 21.4 µM (inactive) | GI50 (DMS-114): > 10 µM (inactive) | GI50 (HOP-18): > 100 µM (inactive) | GI50 (DMS-273): 60.4 µM (inactive) | GI50 (RXF 631): 62.2 µM (inactive) | GI50 (LXFL 529): > 100 µM (inactive)

COc1cc2c(c(OC)c1OC)-c1ccc(OC)c(=O)cc1[C@@H](NC(=O)c1ccccc1)CC2
GI50 (DLD-1): < 0.0124 µM (active) | GI50 (M19-MEL): < 0.01 µM (active) | GI50 (XF498): < 0.01 µM (active) | GI50 (SNB-78): < 0.01 µM (active) | GI50 (DMS-114): < 0.01 µM (active) | GI50 (HOP-18): 97.5 µM (inactive) | GI50 (DMS-273): < 0.01 µM (active) | GI50 (RXF 631): 0.0115 µM (active) | GI50 (LXFL 529): < 0.01 µM (active)

CC(=O)c1ccc(NC(=O)/C(Cc2ccccn2)=N/NC(=O)C[N+](C)(C)C)cc1
GI50 (DLD-1): > 100 µM (inactive) | GI50 (M19-MEL): > 100 µM (inactive) | GI50 (SNB-78): > 100 µM (inactive) | GI50 (DMS-114): > 100 µM (inactive) | GI50 (HOP-18): > 100 µM (inactive) | GI50 (DMS-273): > 100 µM (inactive) | GI50 (RXF 631): > 100 µM (inactive) | GI50 (LXFL 529): > 100 µM (inactive)

O=C1C(Br)=C(c2ccccc2)C(c2ccccc2)=C1c1ccccc1
GI50 (DLD-1): 1.82 µM (inactive) | GI50 (M19-MEL): 2.17 µM (inactive) | GI50 (XF498): 1.81 µM (inactive) | GI50 (SNB-78): 2.12 µM (inactive) | GI50 (DMS-114): 1.89 µM (inactive) | GI50 (HOP-18): 4.9 µM (inactive) | GI50 (DMS-273): 1.79 µM (inactive) | GI50 (RXF 631): 6.49 µM (inactive) | GI50 (LXFL 529): 1.5 µM (inactive)

CCc1cccc(C(C)C)c1NC(=O)/C(=N\NC(N)=O)C(C(=O)OC)c1cnc2ccccc2n1 (stereo unspecified)
GI50 (DLD-1): 79.6 µM (inactive) | GI50 (M19-MEL): 15.9 µM (inactive) | GI50 (XF498): > 100 µM (inactive) | GI50 (SNB-78): > 100 µM (inactive) | GI50 (DMS-114): 24.9 µM (inactive) | GI50 (HOP-18): 19.1 µM (inactive) | GI50 (DMS-273): 31.6 µM (inactive) | GI50 (RXF 631): 55.2 µM (inactive) | GI50 (LXFL 529): 52.4 µM (inactive)

CC(C)OP(=O)(OC(C)C)/C(N)=N/Nc1ccc([N+](=O)[O-])cc1
GI50 (DLD-1): > 100 µM (inactive) | GI50 (M19-MEL): > 100 µM (inactive) | GI50 (XF498): 23.5 µM (inactive) | GI50 (SNB-78): 50.7 µM (inactive) | GI50 (DMS-114): 57.8 µM (inactive) | GI50 (DMS-273): > 100 µM (inactive) | GI50 (LXFL 529): 66.2 µM (inactive)

O=C(Cc1nc2ccccc2s1)Nc1cccc(C(F)(F)F)c1
GI50 (DLD-1): 14.2 µM (inactive) | GI50 (M19-MEL): 13 µM (inactive) | GI50 (XF498): 14.8 µM (inactive) | GI50 (DMS-114): 15.6 µM (inactive) | GI50 (HOP-18): 18.5 µM (inactive) | GI50 (DMS-273): 18.7 µM (inactive) | GI50 (RXF 631): 13.8 µM (inactive) | GI50 (LXFL 529): 13.4 µM (inactive)
